From ChEMBL document CHEMBL1128213, “1-Phenyl-3-(aminomethyl)pyrroles as potential antipsychotic agents. Synthesis and dopamine receptor binding” (J Med Chem, 1995)

Tests used:
[1] = molecular target: T1, D(4) dopamine receptor (Homo sapiens, UniProt P21917)
T1 sequence (P21917 whole entry): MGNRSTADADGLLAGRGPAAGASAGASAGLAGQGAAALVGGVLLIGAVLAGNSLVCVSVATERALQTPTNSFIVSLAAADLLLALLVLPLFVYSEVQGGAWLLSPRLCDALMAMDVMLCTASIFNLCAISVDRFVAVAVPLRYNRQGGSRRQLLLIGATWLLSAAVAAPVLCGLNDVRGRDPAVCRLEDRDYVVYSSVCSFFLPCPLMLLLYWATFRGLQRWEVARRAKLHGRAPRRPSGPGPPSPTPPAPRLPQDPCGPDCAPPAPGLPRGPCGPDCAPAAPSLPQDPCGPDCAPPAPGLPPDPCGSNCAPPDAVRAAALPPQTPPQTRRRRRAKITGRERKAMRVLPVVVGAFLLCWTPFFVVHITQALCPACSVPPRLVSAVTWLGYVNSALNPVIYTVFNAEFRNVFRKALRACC
Description: Displacement of [3H]-YM 09151 from human Dopamine receptor D4

[2] = molecular target: D(3) dopamine receptor (Chlorocebus aethiops, UniProt P52703)
Description: Displacement of [3H]-YM 09151 from african monkey Dopamine receptor D3

[3] = molecular target: D(2) dopamine receptor (Rattus norvegicus, UniProt P61169); assay: Binding affinity towards Dopamine receptor D2 of rat using [3H]spiperone
Chain of D(2) dopamine receptor (P61169 whole entry): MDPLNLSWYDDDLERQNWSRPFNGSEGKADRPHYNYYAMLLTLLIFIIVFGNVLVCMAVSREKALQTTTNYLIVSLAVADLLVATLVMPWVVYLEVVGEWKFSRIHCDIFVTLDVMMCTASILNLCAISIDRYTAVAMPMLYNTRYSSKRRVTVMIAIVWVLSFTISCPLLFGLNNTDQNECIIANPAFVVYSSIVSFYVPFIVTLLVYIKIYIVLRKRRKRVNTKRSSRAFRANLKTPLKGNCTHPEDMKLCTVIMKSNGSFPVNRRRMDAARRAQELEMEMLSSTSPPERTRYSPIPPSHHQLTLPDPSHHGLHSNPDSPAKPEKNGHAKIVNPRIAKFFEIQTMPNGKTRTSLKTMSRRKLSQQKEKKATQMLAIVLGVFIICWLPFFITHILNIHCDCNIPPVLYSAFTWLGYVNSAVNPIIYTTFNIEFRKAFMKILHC

Chain of D(3) dopamine receptor (P52703 whole entry): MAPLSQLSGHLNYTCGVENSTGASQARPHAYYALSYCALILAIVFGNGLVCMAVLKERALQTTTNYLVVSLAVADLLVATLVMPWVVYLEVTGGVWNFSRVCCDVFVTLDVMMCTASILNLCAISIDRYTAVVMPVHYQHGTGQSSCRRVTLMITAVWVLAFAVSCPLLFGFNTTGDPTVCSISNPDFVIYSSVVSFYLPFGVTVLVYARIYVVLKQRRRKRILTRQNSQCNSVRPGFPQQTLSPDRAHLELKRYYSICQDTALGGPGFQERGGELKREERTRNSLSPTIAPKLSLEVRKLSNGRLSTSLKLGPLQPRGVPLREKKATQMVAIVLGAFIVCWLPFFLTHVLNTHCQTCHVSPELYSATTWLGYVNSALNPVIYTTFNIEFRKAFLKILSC

Compound | Ki [1] | Ki [2] | Ki [3]
O=c1[nH]c2ccccc2n1C1CCN(Cc2ccn(-c3ccccc3)c2)CC1 | 646 nM | 398 nM | –
C1=C(c2ccccc2)CCN(Cc2ccn(-c3ccccc3)c2)C1 | 4 nM | – | –
c1ccc(N2CCN(Cc3ccn(-c4ccccc4)c3)CC2)cc1 | 4 nM | 49 nM | –
O=C1NCN(c2ccccc2)C12CCN(Cc1ccn(-c3ccccc3)c1)CC2 | 201 nM | 90 nM | –
OC1(c2cccc(C(F)(F)F)c2)CCN(Cc2ccn(-c3ccccc3)c2)CC1 | 492 nM | 420 nM | –
CN1CCN(C2=Nc3cc(Cl)ccc3Nc3ccccc32)CC1 [CLOZAPINE] | – | 466 nM | –

Other lines, results leading:

Ki [1] | Ki [2] | Ki [3] | Compound
9 nM | 61 nM | – | c1ccc(C2CCN(Cc3ccn(-c4ccccc4)c3)CC2)cc1
– | – | 0.8 nM | COc1ccccc1N1CCN(Cc2ccc(-c3ccccc3)n2C)CC1
325 nM | 477 nM | – | OC1(c2ccc(Cl)cc2)CCN(Cc2ccn(-c3ccccc3)c2)CC1
1.3 nM | – | – | COc1ccccc1N1CCN(Cc2ccn(-c3ccccc3)c2)CC1
1.6 nM | 150 nM | – | c1ccc(-n2ccc(CN3CCN(c4ccccn4)CC3)c2)cc1
